From patent publication US10377991B2, “Method of producing airway epithelial cells” (KYOTO UNIVERSITY, priority 2015, dated 2019) come the findings set out here.

The subject of this assay is proximal airway epithelial progenitor cells induced from human iPS cells (201B7). The assay is described as follows: Induction of differentiation into ciliated airway epithelial cells in Step 6 three-dimensional culture, qRT-PCR of FOXJ1, DNAHS and SNTN. It counts as cell-based. To be noted: 10 μM DAPT in medium for Step 6 from Day 42, read on Day 56; versus Step 6 medium without DAPT. As for the experimental part: On Day 42 (i.e., upon completion of Step 5), the medium in the lower layer of Cell Culture Inserts (Corning) was exchanged with the medium for Step 6, and the medium of the lower layer was selectively exchanged with another medium every other day.
The medium for Step 6 was prepared by supplementing the Pneumacult-ALI Maintenance Medium (STEMCELL Technologies) with 10 μM Y-27632.
On Day 6 (i.e., upon completion of Step 1), Day 14 (i.e., upon completion of Step 3), Day 28 (i.e., upon completion of Step 4), Day 42 (i.e., upon completion of Step 5), and Day 56 (i.e., upon completion of Step 6), expression levels of FOXJ1, DNAHS, and SNTN as marker genes specific to ciliated airway epithelial cells were analyzed via quantitative RT-PCR. Day 56 (+DAPT) represents the results of culture conducted in the medium for Step 6 supplemented with 10 μM DAPT from Day 42 (i.e., upon completion of Step 5). The measured values indicate the ratio of the cell expression levels to the amount of β-actin (AB) corrected with the expression levels in the human fetal trachea (F-trachea, 29-weeks pregnant, BioChain Institute).
A general note: In qPCR the cycle at which signal appears reflects the starting amount.

For the compound `C[C@H](NC(=O)Cc1cc(F)cc(F)c1)C(=O)N[C@H](C(=O)OC(C)(C)C)c1ccccc1` [DAPT, N-[2S-(3,5-difluorophenyl)acetyl]-L-alanyl-2-phenyl-1,1-dimethylethyl ester-glycine], the “differentiation into ciliated airway epithelial cells (expression of FOXJ1, DNAHS, SNTN by qRT-PCR)” value was “further accelerated”.
